# Assay results reported in patent US10758534B2 (Vertex Pharmaceuticals Incorporated, priority 2014, dated 2020).
# Where two headings read alike, the source gives them in different places.
# Biological target: T1, F508del (Homo sapiens, UniProt P13569, DEL508-508)
# T1 construct: expressed in transfected cells
# Assay: Protocol 2: FRET membrane potential optical assay (VIPR), identification of correction compounds
# Type: cell-based
# Summary of the method: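 Corrector readout: membrane-potential FRET (CC2-DMPE donor, DiSBAC2(3) acceptor) on VIPR II after Cl⁻-free gluconate bath with 10 μM forskolin and 20 μM genistein. Before this, F508del-expressing NIH3T3 cells were exposed to test compound for 16 h at 37 °C without serum; 27 °C incubation served as temperature-correction control.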
# [1] = Table 3, compounds of Table 1 as modulators of CFTR activity, protocol not stated
# [2] = F508del CFTR modulator activity, compounds of Table 1, read-out: EC30
# T1 sequence (P13569 with tags, fused parts or gaps DEL508-508): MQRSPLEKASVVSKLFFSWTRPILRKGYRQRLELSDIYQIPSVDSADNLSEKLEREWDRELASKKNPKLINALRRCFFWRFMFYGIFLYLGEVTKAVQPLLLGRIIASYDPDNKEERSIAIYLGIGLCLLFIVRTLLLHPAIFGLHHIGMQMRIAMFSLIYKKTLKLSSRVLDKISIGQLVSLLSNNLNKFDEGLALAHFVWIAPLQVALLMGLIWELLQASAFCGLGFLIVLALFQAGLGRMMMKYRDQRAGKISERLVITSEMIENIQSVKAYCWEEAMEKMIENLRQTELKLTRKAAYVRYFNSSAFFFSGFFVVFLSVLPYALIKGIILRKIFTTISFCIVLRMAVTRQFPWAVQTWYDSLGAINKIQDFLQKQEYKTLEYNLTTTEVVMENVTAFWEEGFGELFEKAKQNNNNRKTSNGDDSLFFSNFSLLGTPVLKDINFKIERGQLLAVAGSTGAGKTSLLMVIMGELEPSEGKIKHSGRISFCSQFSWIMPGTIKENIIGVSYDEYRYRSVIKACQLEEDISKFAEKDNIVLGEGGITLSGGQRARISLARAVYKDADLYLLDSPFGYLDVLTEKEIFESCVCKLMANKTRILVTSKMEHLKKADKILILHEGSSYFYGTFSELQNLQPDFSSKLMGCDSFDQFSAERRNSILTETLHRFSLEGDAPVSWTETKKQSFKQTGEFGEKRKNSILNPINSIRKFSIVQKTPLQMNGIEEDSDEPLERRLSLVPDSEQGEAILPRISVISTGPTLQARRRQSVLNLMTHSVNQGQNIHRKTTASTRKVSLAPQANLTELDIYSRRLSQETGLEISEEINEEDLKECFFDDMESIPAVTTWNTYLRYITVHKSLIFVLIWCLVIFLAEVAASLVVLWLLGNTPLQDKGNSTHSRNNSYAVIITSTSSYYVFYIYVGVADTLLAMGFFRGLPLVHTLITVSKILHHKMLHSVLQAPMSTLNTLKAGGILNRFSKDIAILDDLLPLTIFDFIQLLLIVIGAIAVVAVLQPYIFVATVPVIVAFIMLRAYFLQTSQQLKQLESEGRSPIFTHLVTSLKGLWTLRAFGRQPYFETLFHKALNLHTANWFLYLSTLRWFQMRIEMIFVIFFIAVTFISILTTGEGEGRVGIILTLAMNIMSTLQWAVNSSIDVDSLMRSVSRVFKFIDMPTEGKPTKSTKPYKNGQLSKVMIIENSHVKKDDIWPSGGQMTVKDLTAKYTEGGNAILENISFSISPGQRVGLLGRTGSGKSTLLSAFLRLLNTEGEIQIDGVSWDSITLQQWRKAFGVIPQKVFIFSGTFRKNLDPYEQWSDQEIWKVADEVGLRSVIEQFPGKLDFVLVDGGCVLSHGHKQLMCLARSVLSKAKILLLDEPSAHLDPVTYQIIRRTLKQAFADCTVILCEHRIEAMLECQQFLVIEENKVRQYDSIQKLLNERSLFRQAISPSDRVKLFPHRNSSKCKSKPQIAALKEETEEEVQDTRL
EC30 [1],EC30 [2] [µM],Structure (SMILES)
++ (“++” means between 3 uM and 10 uM),,"Cc1cc(C)c(Oc2nc3ccccc3cc2C(=O)NS(=O)(=O)c2cccc(N)c2)c(C)c1 [Compound 260, N-(3-aminophenyl)sulfonyl-2-(2,4,6-trimethylphenoxy)quinoline-3-carboxamide]"
,3 to 10,"Cc1cccc(COc2cccc(S(=O)(=O)NC(=O)c3cccnc3N3CC(C)CC3(C)C)n2)n1 (stereo not shown) [Compound 2294, N—[[6-[(6-methyl-2-pyridyl)methoxy]-2-pyridyl]sulfonyl]-2-(2,2,4-trimethylpyrrolidin-1-yl)pyridine-3-carboxamide]"
,< 3,"CC(C)Oc1ccc(-c2ccc(C(=O)NS(=O)(=O)N3CC[C@H](N)C3)c(N3C[C@@H](C)CC3(C)C)n2)cc1 [Compound 2120, N-[(3S)-3-aminopyrrolidin-1-yl]sulfonyl-6-(4-isopropoxyphenyl)-2-[(4S)-2,2,4-trimethylpyrrolidin-1-yl]pyridine-3-carboxamide]"
+++ (“+++” means <3 uM),,"CC(C)Oc1ccc(-c2ccc(C(=O)NS(=O)(=O)c3cccc(N)n3)c(N3CCC[C@@H](C)C3)n2)cn1 [Compound 757, N-[(6-amino-2-pyridyl)sulfonyl]-6-(6-isopropoxy-3-pyridyl)-2-[(3R)-3-methyl-1-piperidyl]pyridine-3-carboxamide]"
+++ (“+++” means <3 uM),,"CC(C)(C)c1cc(C(=O)NS(=O)(=O)c2cccc(N)c2)n(Cc2c(Cl)cc(Cl)cc2Cl)n1 [Compound 303, N-(3-aminophenyl)sulfonyl-5-tert-butyl-2-[(2,4,6-trichlorophenyl)methyl]pyrazole-3-carboxamide]"
++ (“++” means between 3 uM and 10 uM),,"Cc1ccc(-c2nc(C(C)(C)C)ccc2C(=O)NS(=O)(=O)c2ccn[nH]2)cc1 [Compound 632, 6-tert-butyl-2-(p-tolyl)-N-(1H-pyrazol-5-ylsulfonyl)pyridine-3-carboxamide]"
,< 3,C[C@@H]1CN(c2nc(C(C)(C)C)c(C(O)C(O)C(C)(C)C)cc2C(=O)NS(=O)(=O)c2cccc(N)n2)C(C)(C)C1 (stereo partly shown) [Compound 2370]
++ (“++” means between 3 uM and 10 uM),,"Cc1cc(C)c(Oc2nc(C)c(C#N)cc2C(=O)NS(=O)(=O)c2cccc(N)c2)c(C)c1 [Compound 124, N-(3-aminophenyl)sulfonyl-5-cyano-6-methyl-2-(2,4,6-trimethylphenoxy)pyridine-3-carboxamide]"
++ (“++” means between 3 uM and 10 uM),,"COc1cc(F)ccc1-c1cc(C(=O)NS(=O)(=O)c2ccccc2)n(Cc2c(C)cccc2C)n1 [Compound 155, N-(benzenesulfonyl)-2-[(2,6-dimethylphenyl)methyl]-5-(4-fluoro-2-methoxy-phenyl)pyrazole-3-carboxamide]"
,< 3,"CC1CN(c2ncccc2C(=O)NS(=O)(=O)c2cccc(OCC3OCc4ccccc4O3)n2)C(C)(C)C1 (stereo not shown) [Compound 2627, N—[[6-(4H-1,3-benzodioxin-2-ylmethoxy)-2-pyridyl]sulfonyl]-2-(2,2,4-trimethylpyrrolidin-1-yl)pyridine-3-carboxamide]"

Structure (SMILES),EC30 [1],EC30 [2] [µM]
"CC(C)COc1cc(F)cc(-c2ccc(C(=O)NS(=O)(=O)c3ccn[nH]3)c(N3CCC[C@H]3c3ccccc3)n2)c1 [Compound 716, 6-(3-fluoro-5-isobutoxy-phenyl)-2-[(2S)-2-phenylpyrrolidin-1-yl]-N-(1H-pyrazol-5-ylsulfonyl)pyridine-3-carboxamide]",+++ (“+++” means <3 uM),
"CC(C)COc1cc(F)cc(-c2ccc(C(=O)NS(=O)(=O)c3cccc(N)n3)c(N3CC(c4ccccc4)CC3C)n2)c1 (stereo not shown) [Compound 488, N-[(6-amino-2-pyridyl)sulfonyl]-6-(3-fluoro-5-isobutoxy-phenyl)-2-(2-methyl-4-phenyl-pyrrolidin-1-yl)pyridine-3-carboxamide]",+++ (“+++” means <3 uM),
"CC(C)COc1ccn(-c2ccc(C(=O)NS(=O)(=O)c3cccnc3N)c(N3C[C@@H](C)CC3(C)C)n2)n1 [Compound 2191, N-[(2-amino-3-pyridyl)sulfonyl]-6-(3-isobutoxypyrazol-1-yl)-2-[(4S)-2,2,4-trimethylpyrrolidin-1-yl]pyridine-3-carboxamide]",,< 3
